In patent EP1366764A1, “Method of screening for calcium receptor-active molecules” (The Brigham & Women's Hospital, Inc., priority 1993, dated 1994):

How the values were obtained:
[1] = Net positive charge of the molecule; assay type: physicochemical; settings: at physiological pH (pH 7.3)
rMTC 6-23 cells = assay: Measurement of cytosolic Ca2+ in C-cells (fura-2); assay type: cell-based, rat
rat osteoclasts = assay: Measurement of [Ca2+]i in single rat osteoclasts (indo-1); assay type: cell-based
[2] = Hypocalcemic activity in vivo (serum or whole blood ionized Ca2+, PTH) in rats
From the text: Male Sprague-Dawley rates (200 g) were maintained on a low calcium diet for one week prior to receiving test substance or vehicle as control.
Rats (male, Sprague-Dawley, 250-300 g) were fed standard rat chow and fasted overnight prior to the experiment.

Molecule	Net (+) Charge [1]	other results
NCCCN1CCCN(CCCN)CCN(CCCN)CCCN(CCCN)CC1 [NPS 383]	+8	
NCCCNCCCCNCCCNCCCNCCCNC(=O)Cc1c[nH]c2ccccc12 [NPS 019]		EC50 (rMTC 6-23 cells; rMTC 6-23 cells, fura-2, "inactive" = no increase in cytosolic Ca2+ at 1 mM or 1-5 mM (footnote), read-out: EC50 (C-CELL)): 5 µM
NC[C@H]1O[C@H](O[C@H]2[C@H](O)[C@@H](O[C@H]3O[C@H](CO)[C@@H](O)[C@H](N)[C@H]3O)[C@H](N)C[C@@H]2N)[C@H](N)[C@@H](O)[C@@H]1O [bekanamycin]	+5	
NC(=O)C[C@H](NC(=O)Cc1c[nH]c2cccc(O)c12)C(=O)NCCCCCNCCCNCCCNC(=O)[C@@H](N)CCCN=C(N)N [Argiotoxin-659]	+4	
NCCNCCNCCN [Triethylenetramine (TETA), triethylenetetramine]	+4	
COc1ccc(CCN(C)CCCC(C#N)(c2ccc(OC)c(OC)c2)C(C)C)cc1OC (stereo not shown) [verapamil]		increase in [Ca^2+]i (rat osteoclasts; 100 µM): caused no detectable increase in [Ca^2+]i
CCC[C@@H]1C[C@@H](C(=O)N[C@@H]([C@H]2O[C@H](SC)[C@H](O)[C@@H](O)[C@H]2O)[C@@H](C)O)N(C)C1 [lincomycin]	+1	
NCCNCCNCCNCCN [Tetraethylenepentamine (TEPA), Tetraethylenepentamine]	+5	
COc1cccc(C(C)NCCCc2ccccc2)c1 (racemic) [NPS 467]		return of hypocalcemic effect toward control ([2]; 25 mg/kg (Fig. 40)): returned toward control levels after 24 hours; time of maximal hypocalcemic effect ([2]; 25 mg/kg (Fig. 40)): maximal within three hours; serum albumin or phosphate levels ([2]; any of the doses examined): no change; circulating levels of PTH ([2]; doses effective in lowering blood Ca2+, preliminary studies): dose-dependent reduction; serum or whole blood Ca^2+ ([2]; i.p., low calcium diet, three hours after administration): dose-dependent reduction
NCCCN(CCCN)CCCN(CCCN)CCCCN(CCCN)CCCN(CCCN)CCCN [NPS 381, N^1,N^1,N^5,N^10,N^14,N^14-hexakis-(3-aminopropyl) spermine]	+10	
gentamicin	+5	
[H]/N=C(/N)N[C@H]1[C@H](O)[C@@H](O)[C@H](O[C@@H]2O[C@@H](C)[C@](O)(C=O)[C@H]2O[C@@H]2O[C@@H](CO)[C@H](O)[C@@H](O)[C@@H]2NC)[C@@H](N/C(N)=N\[H])[C@@H]1O [streptomycin]	+3	
NCCCNCCCCNCCCNCCCN(O)CCCNC(=O)Cc1c[nH]c2cccc(O)c12 [NPS 015]		EC50 (C-CELL) (rMTC 6-23 cells; rMTC 6-23 cells, fura-2, "inactive" = no increase in cytosolic Ca2+ at 1 mM or 1-5 mM (footnote)): inactive; IC50 (rMTC 6-23 cells; read-out: IC50 for block of extracellular Ca^2+-induced increases in [Ca^2+]i, rMTC cells, block of the L-type voltage-sensitive Ca2+ channel): 3 µM
NCCCCCCCCCCCCN [1,12-diaminododecane (DADD), 1,12-diaminododecane]	+2	
NCCCNCCCCNCCCNCCCN(O)CCCNC(=O)Cc1c[nH]c2ccccc12 [NPS 017]		EC50 (OSTEOCLAST) (rat osteoclasts; rat osteoclasts, indo-1, "inactive" = no increase in cytosolic Ca2+ at 1 mM or 1-5 mM (footnote)): inactive
NCCCCNCCCN [spermidine]	+3	increase in [Ca^2+]i, % of that evoked by a maximal concentration of extracellular Ca^2+ (rat osteoclasts; 1 mM): about 10%
